{"source": "patent US12544371B2", "about": "“Methods and compositions for treating acute lung injury and acute respiratory distress syndrome” (CalciMedica, Inc., priority 2020, dated 2026)", "key": {"[1]": {"experiment": "Cardiovascular safety in telemetered cynomolgus monkey", "type": "in vivo", "excerpt": "Compound 1 is a non-limiting example of a composition described herein that inhibits calcium release-activated calcium (CRAC) channels)."}, "[2]": {"test_system": "IFNγ released from human PBMCs", "experiment": "Cytokine released from human PBMCs: IFNγ", "type": "cell-based", "excerpt": "(§1) CRAC channels may play a proximal role in a calcium-calcineurin pathway leading to cytokine release in immune cells."}, "[3]": {"experiment": "Phase 2 open-label study in acute pancreatitis with SIRS and hypoxemia (Compound 1 Test 201)", "type": "in vivo, human", "experimental": "A Phase 2, open-label, dose-response, multi-center study of Compound 1 was conducted in patients with AP and accompanying SIRS and hypoxemia (Compound 1 Test 201). One patient was randomized having SIRS alone at Screening. The primary objective of the study was to evaluate safety and tolerability; the secondary objective was to evaluate efficacy and the PK profile of Compound 1.\nThe study had 2 phases; the Initial Phase consisted of 2 concurrently enrolled cohorts and the Second Phase consisted of 2 concurrently enrolled cohorts. In total, it was planned to have 4 Cohorts containing 24 adult male and female patients with AP and accompanying SIRS and hypoxemia. In the Initial Phase, 4 female patients were to be randomized in a 3:1 ratio to receive Compound 1+Supportive Care (SC) or SC alone (Cohort 1). Concurrently, 4 male patients were to be randomized in a 3:1 ratio to receive Compound 1+SC or SC alone (Cohort 2). Doses were to be 1.0 mg/kg on Day 1 and 1.4 mg/kg daily on Days 2, 3 and 4 (low dose regimen). In the Second Phase, 8 female patients were to be randomized in a 3:1 ratio to receive Compound 1+SC or SC alone (Cohort 3). Concurrently, 8 male patients were to be randomized in a 3:1 ratio to receive Compound 1+SC or SC alone (Cohort 4). Planned doses for both Cohorts 3 and 4 were to be 2.08 mg/kg daily on Days 1 and 2 and 1.6 mg/kg daily on Days 3 and 4 (high dose regimen).\nThe decision to start Cohort 3 in the Second Phase was made after study personnel reviewed the available efficacy, safety and tolerability data from Cohort 1 and discussed this with the Principal Investigator (PI). […] Cohort 3, therefore, received the same dose level and schedule as Cohort 1, […] on Day 1 and 1.4 mg/kg daily on Days 2, 3 and 4. The decision to start Cohort 4 in the Second Phase of the study was made after study personnel reviewed the available efficacy, safety and tolerability data from Cohort 2 and discussed this with the Principal Investigator. Cohort 4, therefore, received the original planned dose level and schedule; 2.08 mg/kg daily on Days 1 and 2 and 1.6 mg/kg daily on Days 3 and 4.\nThe first infusion of Compound 1 was started within 6 (up to 8) hours of the patient or LAR providing informed consent and was administered as a continuous IV infusion over 4 hours. Subsequent infusions were to be started every 24 hours (±1 hour) from the start of the first infusion."}, "[4]": {"experiment": "Long-term extension study of SAD and MAD subjects", "type": "in vivo, human", "excerpt": "Subjects in Groups 4 and 5 of the SAD study and Groups 1 and 2 of the MAD study who received Compound 1 were followed for 1 year in a long-term extension study to assess for adverse events and serious adverse events. In addition, PK levels were drawn in all 4 groups on Day 270 to further characterize the terminal phase and the prolonged period of residual drug level."}, "[5]": {"test_system": "stimulated IL-2 release in whole blood", "experiment": "Whole blood assay of stimulated IL-2 release", "type": "cell-based", "conditions": "Human whole blood; SEM (n); read-out: Compound 1 IC50, whole blood assay of stimulated IL-2 release", "excerpt": "as §1"}, "[6]": {"test_system": "CRAC channel-dependent stimulated IL-2 secretion", "experiment": "Ex vivo whole blood PD assay of CRAC channel-dependent IL-2 release (Test 202)", "type": "in vivo, human", "experimental": "In Compound 1 Test 202, a pharmacodynamic and pharmacokinetic study of Compound 1 in patients with acute pancreatitis, patients with AP (regardless of the presence of SIRS and/or hypoxemia) were administered a single IV infusion of 2.08 mg/kg of an injectable emulsion of Compound 1 and blood, plasma and serum were collected for analysis. It was planned to initially enroll 5 patients and then to enroll an additional 4 patients as needed. Ultimately, 7 patients were screened for the study, and all 7 enrolled in and completed the study. On Days 1 and 2, blood and plasma samples for PD and PK analyses, respectively, were obtained 30 minutes after completing the administration of Compound 1 and 24 hours from the start of the administration of Compound 1. In patients hospitalized at Day 5 and 10, blood and plasma samples were obtained; if discharged earlier, samples were obtained at the time of discharge. After discharge, patients returned to the hospital on Day 30 to provide final blood and plasma samples.\nAn intravenous formulation of a CRAC inhibitor comprising Compound 1 allowed rapid delivery and onset of action when a single 2.08 mg/kg dose was given in human patients with acute pancreatitis (AP). Ex vivo whole blood pharmacodynamic (PD) assays of CRAC channel-dependent IL-2 release were performed."}}, "note": "Read-outs that look alike come from different tables or passages of the source."}
{"smiles": "Cc1cccc(F)c1C(=O)Nc1cnc(-c2cc3c(cc2Cl)OC(F)(F)O3)cn1", "note": "[Compound 1, N-(5-(6-Chloro-2,2-difluorobenzo[d][1,3]dioxol-5-yl)pyrazin-2-yl)-2-fluoro-6-methylbenzamide]", "values": [{"measurement": "cardiovascular data at lower doses", "setting": "[1]; 1, 3 and 10 mg/kg, also seen in placebo treated animals", "result": "transient, non-dose-related, slight-to-moderate increases in systolic/diastolic arterial blood pressures and negative chronotropic effects (mild and non-adverse)"}, {"measurement": "clinical and cardiovascular effects", "setting": "[1]; single telemetered cynomolgus monkey, 25 mg/kg IV", "result": "Dose-limiting adverse clinical and cardiovascular effects"}, {"measurement": "IC50", "setting": "[2]; Homo sapiens, PBMC, mean of replicates, read-out: Mean IC50, IFNγ released from human PBMCs", "result": 138, "unit": "nM"}, {"measurement": "IC50", "setting": "[2]; Homo sapiens, PBMC, single replicates, read-out: Replicate IC50 values, IFNγ released from human PBMCs", "result": 175, "unit": "nM"}, {"measurement": "IC50", "setting": "[2]; single replicates, read-out: Replicate IC50 values, IFNγ released from human PBMCs", "result": 102, "unit": "nM"}, {"measurement": "Discharge IL-6 levels, patients with 150 pg/mL ≤ IL-6 < 1000 pg/mL", "setting": "[3]; 2a High Dose Regimen + SC, admission 1", "result": 1}, {"measurement": "Discharge IL-6 levels, patients with IL-6 ≥ 1000 pg/mL", "setting": "[3]; 2a High Dose Regimen + SC, admission 2", "result": 0}, {"measurement": "Discharge IL-6 levels, patients with IL-6 ≥ 1000 pg/mL", "setting": "[3]; 2a Low Dose Regimen + SC, admission 0", "result": 0}, {"measurement": "Discharge IL-6 levels, patients with 150 pg/mL ≤ IL-6 < 1000 pg/mL", "setting": "[3]; 2a Low Dose Regimen + SC, admission 4", "result": 0}, {"measurement": "patients in whom IL-6 levels decreased to below 150 pg/mL", "setting": "[3]; Tests 201 and 202 pooled, maximum IL-6 ≥150 pg/mL in the first 24 hours", "result": "7 of 8"}, {"measurement": "procalcitonin at discharge", "setting": "[3]; first critically ill AP patient", "result": 0.24, "unit": "ng/mL"}, {"measurement": "IL-6 at 120 hrs", "setting": "[3]; first critically ill AP patient, IL-6 >7296 pg/mL at study entry", "result": 66, "unit": "pg/mL"}, {"measurement": "TEAEs with causality considered Possible (Chromaturia)", "setting": "[3]; high dose regimen+SC", "result": 1, "unit": "TEAE"}, {"measurement": "patients with SAEs", "setting": "[3]; high dose regimen+SC, 1 of 6", "result": 17, "unit": "%"}, {"measurement": "patients with Acute Respiratory Distress Syndrome", "setting": "[3]; high dose regimen+SC, 2 of 6", "result": 33, "unit": "%"}, {"measurement": "patients with Confusional State", "setting": "[3]; high dose regimen+SC, 2 of 6", "result": 33, "unit": "%"}, {"measurement": "patients with Malnutrition", "setting": "[3]; high dose regimen+SC, 2 of 6", "result": 33, "unit": "%"}, {"measurement": "patients with severe TEAEs", "setting": "[3]; high dose regimen+SC, 2 of 6", "result": 33, "unit": "%"}, {"measurement": "patients with treatment-emergent AEs (TEAEs)", "setting": "[3]; high dose regimen+SC, 5 of 6 patients", "result": 83, "unit": "%"}, {"measurement": "patients with TEAEs leading to discontinuation of the study drug", "setting": "[3]; high dose regimen+SC, 3 TEAEs", "result": 2, "unit": "patients"}, {"measurement": "deaths during the study", "setting": "[3]; high dose regimen+SC, Hypoxic-Ischemic Encephalopathy, causality Unrelated", "result": 1, "unit": "death"}, {"measurement": "IL-6 levels in patients", "setting": "[3]; in vivo", "result": "marked reduction"}, {"measurement": "respiratory dysfunction in patients", "setting": "[3]; in vivo", "result": "beneficial effects"}, {"measurement": "safety in critically ill patients", "setting": "[3]; intravenous, 90 days in patients with AP, SIRS plus hypoxemia", "result": "safe"}, {"measurement": "changes in vital signs, oxygenation, and laboratory values", "setting": "[3]; low dose or high dose regimen", "result": "no untoward changes"}, {"measurement": "safety and tolerability", "setting": "[3]; low dose regimen+SC and high dose regimen+SC", "result": "well tolerated"}, {"measurement": "patients with severe TEAEs", "setting": "[3]; low dose regimen+SC, 0 of 8", "result": 0, "unit": "%"}, {"measurement": "patients with Headache", "setting": "[3]; low dose regimen+SC, 2 of 8", "result": 25, "unit": "%"}, {"measurement": "patients with Hypokalemia", "setting": "[3]; low dose regimen+SC, 2 of 8", "result": 25, "unit": "%"}, {"measurement": "patients with SAEs", "setting": "[3]; low dose regimen+SC, 2 of 8", "result": 25, "unit": "%"}, {"measurement": "patients with treatment-emergent AEs (TEAEs)", "setting": "[3]; low dose regimen+SC, 7 of 8 patients", "result": 88, "unit": "%"}, {"measurement": "procalcitonin levels versus the standard of care", "setting": "[3]; phase 2a study patients", "result": "did not increase"}, {"measurement": "procalcitonin at discharge", "setting": "[3]; second critically ill AP patient", "result": 0.30, "unit": "ng/mL"}, {"measurement": "IL-6 at 120 hrs", "setting": "[3]; second critically ill AP patient, IL-6 1021 pg/mL at study entry", "result": 83, "unit": "pg/mL"}, {"measurement": "number of mild AEs in the extension study", "setting": "[4]; 365 days", "result": 1}, {"measurement": "serious adverse events and adverse events rated moderate or severe, long-term follow-up", "setting": "[4]; healthy subjects followed for 365 days", "result": "safe and no serious adverse events and no adverse events rated moderate or severe in intensity and no SAEs or AEs rated moderate or severe in intensity"}, {"measurement": "IC50", "setting": "[5]", "result": "178 ± 32", "unit": "nM"}, {"measurement": "inhibition at 2.08 mg/kg", "setting": "[6]; Homo sapiens, at or near Cmax, single 2.08 mg/kg IV", "result": "~57", "unit": "%"}, {"measurement": "time over which the inhibitory effect dissipated", "setting": "[6]; after Cmax", "result": "1 to 2", "unit": "days"}, {"measurement": "recovery of IL-2 production", "setting": "[6]; after the end of the infusion", "result": 24, "unit": "h"}, {"measurement": "decrease of IL-2 production", "setting": "[6]; at the end of the infusion", "result": "> 50", "unit": "%"}, {"measurement": "onset of action, IL-2 release inhibition", "setting": "[6]; peak at the end of a 4-hour infusion", "result": "rapid onset of action"}]}
